Test results as given in US7504384B2 (priority 2000, dated 2009).
Like-named read-outs stand apart in the source and are kept apart here.

What was measured:
[1] = system: Influenza A (H3N2 strain) virus; format: cell-based, Influenza type A, A/Panama/2007/99 (H3N2)
[2] = system: Influenza A (H1N1 strain) virus; format: cell-based, Influenza type A, A/New Caledonia/20/99 (H1N1); details: high concentration, Neutral Red Uptake Assay
[3] = system: Influenza A (H3N2 strain) virus; format: cell-based, Influenza type A, A/Panama/2007/99 (H3N2); details: high concentration, Neutral Red Uptake Assay
[4] = system: Influenza A (H1N1 strain) virus; format: cell-based, Influenza type A, A/New Caledonia/20/99 (H1N1); details: high concentration; Visual Observation Assay; Influenza A (H1N1 strain)
[5] = system: Guinea pig tracheal rings; assay: Inhibition of tracheal ring contraction; details: Lipid-conjugate 10 μM
Protocol: A muscle preparation (tracheal rings) was isolated from rats (Experiments 3.1-3.3) and from guinea pigs (Experiments 3.4-3.5). Muscle contraction was measured by attachment of the muscle to a pressure transducer, which works much like a spring. Administration of asthmatogenic substances such as endothelin-1 (ET) and acetylcholine (AcCh) induces muscle contraction. Endothelins are released upon vascular endothelial injury, and they activate macrophages and act as strong chemo-attractants for circulating monocytes. Endothelins affect vascular smooth muscle fibroblast proliferation; help regulate vascular, airway, and intestinal smooth muscle tone; increase the activity of bone alkaline phosphatase; stimulate release of atrial natriuretic peptide (ANP) from atrial cardiocytes; inhibit the release of renin from glomeruli and modulate norepinephrine at sympathetic nerve termini. Opposing vasomotor effects are regulated through the binding of distinct endothelin receptors for vasoconstriction and vasodilation. Endothelins have been linked to atherosclerosis and various cardiovascular disease states. ET-1 is important in congestive heart failure, renal failure, pulmonary hypertension, hyperlipidemia and metastatic prostate cancer. On the other hand, AcCh is one of the three main receptors on the bronchi of the lungs, which are basically tubes with muscular walls. Stimulation of bronchial AcCh receptor induces muscle contraction and decreased airflow through the bronchi. Thus, ET and AcCh were used to experimentally induce muscle contraction in the lungs as a model of obstructive respiratory disorders.
Experiment 3.4: Guinea pig tracheal rings (in a linear array), immersed in a ringer bath, were connected to an apparatus measuring the length of the ring chain. […] Human airways have both Histamine (H)-1 and H2 receptors. H1 receptors, which mediate bronchoconstriction, predominate. Histamine application in experimental models produces signs and symptoms of asthma, such as narrowing of the airways, mucus secretion, wheezing, and coughing.

[6] = system: PGE2 and TXB2 production by guinea pig tracheal rings; assay: Tracheal tissue PGE2 and TXB2 production (radioimmunoassay); details: Histamine (40 μM) + Compound XXVI (10 μM); histamine alone 5.6
Protocol: Experiment 3.5: Guinea pig tracheal rings were incubated with or without Compound XXVI for 30 minutes prior to stimulation. The medium was collected after 30 minutes, and PGE2 and TXB2 levels were determined by radioimmunoassay (Table 3.2). PGE2 and TXB2 are metabolites of arachidonic acid produced during inflammatory response.

[7] = system: mice; assay: Acute (7 day) toxicity test; format: in vivo; details: mice, one week after a single i.p. dose of 1000, 500 or 200 mg/kg; versus untreated mice
Protocol: […] Mortality rate, body weight, blood count (red and white cells), hematocrit, and internal organ histology after sacrifice were assessed. These parameters were compared in Lipid-conjugate-treated and in control, untreated mice.

[8] = system: HIV-1IIIB; assay: Inhibition of p24 production (HIV-1IIIB infection of MT-2 cells); format: cell-based; details: fourth day, p24 ELISA
Protocol: Experiment 1.2: Inhibition of HIV-1IIIB Infection
After 1 h, half of the culture medium was changed and replaced by fresh medium (with/without Lipid-conjugate) and after 24 h, the second half of the culture medium was changed and replaced by fresh medium (with/without Lipid-conjugate). On the fourth day after incubation at 37° C., 100 μl of culture supernatants were collected from each well and an equal volume of fresh medium was added to the wells. The collected supernatants were mixed with an equal volume of 5% (v/v) Triton X-100 and assayed for p24 antigen using an ELISA kit from Coulter Immunology (Hialeah, Fla.).

[9] = system: HIV-1IIIB-infected H9 cells and uninfected MT-2 cells; assay: Inhibition of fusion between HIV-infected and uninfected cells; format: cell-based; details: for IC50 (mean ± SD), inhibition of fusion / IC90 (mean ± SD), inhibition of fusion: H9/HIV-1 IIIB + MT-2 cells, 2 h; for IC50 / IC90: Table 1.4
Protocol: In this assay, HIV-1IIIB-infected H9 cells were labeled with BCECF (2′,7′-bis(2-carboxyethyl)-5-6-carboxyfluorescein-acetoxymethyl-ester, Molecular Probes, Eugene, Oreg.) according to the manufacturer's instructions. BCECF-labeled H9/HIV-1 IIIB cells (10^4) were mixed with 1×10^5 uninfected MT-2 cells. After incubation in a 96-well plate at 37° C. for 2 h, the fused and unfused labeled cells were counted under an inverted fluorescence microscope at ×160 magnification. At least 200 BCECF-labeled cells were counted and the proportion of fused cells was determined Fusion tests were carried out in the presence and absence of graded quantities of the tested Lipid-conjugates. […] The IC50 represents the concentration of a drug that is required to achieve 50% inhibition. Similarly, the IC90 represents the concentration of a drug that is required to achieve 90% inhibition.

[10] = system: vaccinia virus (WR strain); format: cell-based; details: 48 hr
[11] = biological target: V3 (third variable) domain of the HIV-1 envelope glycoprotein gp120; assay: V3 antibody binding (ELISA); parameters: species or system human immunodeficiency virus type 1 (HIV-1); details: standard ELISA
Protocol: V3 antibody binding is an assay that uses an antibody that binds to the V3 (third variable) domain of the human immunodeficiency virus type 1 (HIV-1) envelope glycoprotein gp120. Anti-V3 domain antibodies may provide an indicator of the presence and amount of HIV. V3 antibody binding was determined by standard ELISA.

[12] = system: Influenza B virus; format: cell-based, Influenza type B, B/Hong Kong/330/02; details: lower range of doses, at the concentrations tested
[13] = system: Punta Toro virus; format: cell-based, strain Adames
[14] = system: Respiratory syncytial virus; format: cell-based, strain A2; details: lower range of doses, at the concentrations tested
[15] = system: Punta Toro virus; format: cell-based, strain Adames; remark: listed apart in the source
[16] = system: Human RBC; assay: Prevention of hemolysis of human red blood cells; format: cell-based; details: 20 min, 10 μM Lipid-conjugate, None = 1.000
Protocol: Hemolysis, the breakdown of red blood cells (RBC), may be either a primary disease in itself, or a syndrome associated with another disease or physiological insult. In order to determine the effect of Lipid-conjugates on hemolysis, red blood cells were incubated in the presence of known membrane destabilizing agents and the release of hemoglobulin into the extracellular medium was detected.
Human RBC were washed in saline and suspended in Hanks buffer (pH 7.4). Hemolysis was induced in the absence or presence of 10 μM Lipid-conjugates by treatment with either 5 U/ml streptolysin O (SLO), 25 U/ml streptolysin S (SLS), or 5 μg/ml lysophosphatidylcholine (lyso-PC) for 20 min. The cell membranes were spun and the hemoglobin content in the supernatant was determined by measuring the O.D. at 540 nm (Table 5.1).

[17] = lower range of doses, at the concentrations tested

With NC(=O)c1ncn([C@@H]2O[C@H](CO)[C@@H](O)[C@H]2O)n1 [Ribavirin, reference compound] the “SI (IC50/EC50)” value ([1]; high concentration, Visual Observation Assay, Influenza A (H3N2 strain)) was 56, the “SI (IC50/EC50)” value [2] was 25 and the “SI (IC50/EC50)” value [3] was 36. For the same compound, the “SI (IC50/EC50)” value [4] was 22.

In the case of PE conjugated to CMC [Compound XXVI], the “% Inhibition of tracheal ring contraction” value ([5]; stimulant Endothelin-1 (100 nM)) is reported as 92 ± 1.1%, the “% Inhibition of tracheal ring contraction” value ([5]; stimulant Histamine (20 μM)) is reported as 69 ± 0.1% and the “% Inhibition of tracheal ring contraction” value ([5]; stimulant Phospholipase (0.5 μ/ml) (crotalus atrox type II)) is reported as 100 ± 0.3%. For the same compound, the TXB2 [6] was 1.75 ng/mL and the “toxicity: mortality rate, body weight, blood count, hematocrit, internal organ histology” value [7] was “did not alter the parameters”.

With “PE conjugated to Polygeline (haemaccel) [Compound XXVII]” the “IC50 (mean ± SD), inhibition of p24 production” value [8] was 375.8 ± 119.5 µg/mL, the “IC90 (mean ± SD), inhibition of p24 production” value [8] was over 500 µg/mL and the “IC50 (mean ± SD), inhibition of fusion” value [9] was over 500 µg/mL. The “IC90 (mean ± SD), inhibition of fusion” value [9] was over 500 µg/mL.

In the case of “dimyristoyl-phosphatidyl-ethanolamine linked to HA [Compound XXIII]”, the “% inhibition” value [10] is reported as 99.9%, the Virus titer [10] is reported as 7.7 × 10^4 PFU/culture and the IC50 [11] is reported as 3 µM. The IC50 [8] was 1.77 µM, the “IC50 (mean ± SD), inhibition of p24 production” value [8] was 118.0 ± 16.8 µg/mL and the IC90 [8] was 4.44 µM. The “IC90 (mean ± SD), inhibition of p24 production” value [8] was 296.3 ± 104.0 µg/mL, the “IC50 (mean ± SD), inhibition of fusion” value [9] was 122.8 ± 14.8 µg/mL and the “IC90 (mean ± SD), inhibition of fusion” value [9] was 219.8 ± 10.6 µg/mL. The IC50 [9] was 1.83 µM and the IC90 [9] was 3.3 µM.

“dipalmitoyl-phosphatidyl-ethanolamine (PE) conjugated to chondroitin-sulfate A [Compound XXV]” was tested, and the “virus inhibitory effect against influenza A (H3N2 strain)” value [1, 17] was “did not demonstrate a virus inhibitory effect”, the “virus inhibitory effect against influenza B” value [12] was “did not demonstrate a virus inhibitory effect” and the “% inhibition” value [10] was 62.8%. For the same compound, the Virus titer [10] was 3.2 × 10^7 PFU/culture, the IC50 [11] was 0.2 µM and the “SI (IC50/EC50)” value [13] was 0. For the same compound, the EC50 ([13]; low concentrations, Visual Observation Assay, Punta Toro A) was over 100 µg/mL, the “virus inhibitory effect against Punta Toro virus” value [13, 17] was “did not display a virus inhibitory effect” and the IC50 [8] was 1.45 µM. The “IC50 (mean ± SD), inhibition of p24 production” value [8] was 72.5 ± 8.0 µg/mL, the IC90 [8] was 2.12 µM and the “IC90 (mean ± SD), inhibition of p24 production” value [8] was 106.0 ± 10.3 µg/mL. The “toxicity: mortality rate, body weight, blood count, hematocrit, internal organ histology” value [7] was “induced hemorrhage”, the “virus inhibitory effect against RSV” value [14] was “did not demonstrate a virus inhibitory effect” and the “SI (IC50/EC50)” value [15] was 0. The EC50 ([15]; low concentrations, Neutral Red Uptake Assay, Punta Toro A) was over 100 µg/mL, the “IC50 (mean ± SD), inhibition of fusion” value [9] was over 500 µg/mL and the “IC90 (mean ± SD), inhibition of fusion” value [9] was over 500 µg/mL. The IC50 [9] was over 10 µM and the IC90 [9] was over 10 µM.

“hyaluronic acid [HA, reference compound]” was tested, and the “HEMOLYSIS (O.D. AT 540 nm), Lyso-PC” value ([16]; 5 μg/ml lysophosphatidylcholine) was 1.875 O.D, the “HEMOLYSIS (O.D. AT 540 nm), SLO” value ([16]; 5 U/ml streptolysin O) was 1.000 O.D and the “HEMOLYSIS (O.D. AT 540 nm), SLS” value ([16]; 25 U/ml streptolysin S) was 1.000 O.D.
